The source of these data is patent US11845724B2, “USP30 inhibitors and uses thereof” (Vincere Biosciences, Inc., priority 2019, dated 2023).

For experiment [1], the target named is T1, USP30 (Homo sapiens (Human), UniProt Q70CQ3). In words: Dundee MALDI-TOF mass spectrometry assay (IC50). The format is biochemical. Particulars: USP30 25 ng/μl, K48-linked diubiquitin 5.6 μM. In short, it runs like this: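 USP30 (25 ng/μl) preincubated with compound 5 min at RT in Tris/BSA/DTT buffer, then K48-linked diubiquitin (5.6 μM) added for 45 min at RT. Stopped with 2% TFA; cleavage quantified by MALDI-TOF mass spectrometry to give IC50.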
T1 sequence (Q70CQ3 whole entry): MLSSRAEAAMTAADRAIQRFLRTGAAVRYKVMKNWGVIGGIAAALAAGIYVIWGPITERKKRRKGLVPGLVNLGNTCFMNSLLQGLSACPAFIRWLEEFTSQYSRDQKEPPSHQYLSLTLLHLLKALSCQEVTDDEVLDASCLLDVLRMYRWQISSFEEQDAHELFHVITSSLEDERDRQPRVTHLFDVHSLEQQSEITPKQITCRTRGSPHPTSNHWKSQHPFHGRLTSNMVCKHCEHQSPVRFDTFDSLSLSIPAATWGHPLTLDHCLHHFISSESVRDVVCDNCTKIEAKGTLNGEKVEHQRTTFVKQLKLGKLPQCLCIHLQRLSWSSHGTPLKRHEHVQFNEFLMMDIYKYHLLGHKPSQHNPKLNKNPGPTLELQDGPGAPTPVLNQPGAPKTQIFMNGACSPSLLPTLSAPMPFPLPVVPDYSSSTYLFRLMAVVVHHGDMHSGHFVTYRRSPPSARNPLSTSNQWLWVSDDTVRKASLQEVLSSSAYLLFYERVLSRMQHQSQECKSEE

The target of experiment [2] is T1, USP30. In words: Dundee MALDI-TOF mass spectrometry assay (% DUB activity remaining at 1 μM). The format is biochemical. Particulars: % DUB activity remaining at compound concentration of 1 μM; avg; read-out: Dundee % Activity at 1 μM (avg in vitro MS assay). On the procedure:
Compounds were tested in a MALDI-TOF assay based on the paper by Ritorto et al. (Ritorto et al. Screening of DUB activity and specificity by MALDI-TOF mass spectrometry. Nat. Commun. 5:4763).
USP30 (25 ng/μl) tested against K48-linked diubiquitin (5.6 μM). USP30 was diluted in a buffer containing 40 mM Tris, 0.01% BSA, 1 mM DTT and K48 in 40 mM Tris, 0.01% BSA.
The compounds were pre-incubated with the USP30 for 5 mins at room temp before the K48 dimer addition. The assay mixture was then incubated for 45 mins at room temp. The assay was stopped by the addition of TFA to a final concentration of 2% (v/v).
Acidified samples of the DUB assays were mixed with 0.5 mM 15N-ubiquitin and then with one part of 2% (v/v) TFA and one part of 2,5 DHAP matrix solution (7.6 mg of 2,5 DHAP in […] ethanol and […] of an aqueous 12 mg ml 1 diammonium hydrogen citrate). Then 250 nl of these solutions were spotted onto an MTP AnchorChip 1,536 TF and this is analysed on the Bruker rapifleX MALDI-TOF.
Table 22 presents the Dundee MALDI-TOF values expressed as % DUB activity remaining at a compound concentration of 1 μM.

Experiment [3] concerns the target recombinant USP30 (amino acids 57-517 of the human sequence) (Homo sapiens (Human), UniProt Q70CQ3). Kind of experiment: In vitro USP30 biochemical assay (Ubiquitin-Rhodamine).
The mark [4] stands for this setting: avg, read-out: Dundee IC50 μM (avg in vitro MS assay).
The mark [5] stands for this setting: USP30 IC50 μM (avg), Ubiquitin-Rhodamine substrate 25 nM, 1.5 nM recombinant USP30.
Where [6] appears, read: Dundee IC50 μM (avg in vitro MS assay).

What is called IC50 is the concentration that gives 50% inhibition.

Where two headings read alike, the source gives them in different places.

recombinant USP30 (amino acids 57-517 of the human sequence), sequence (Q70CQ3 57-517): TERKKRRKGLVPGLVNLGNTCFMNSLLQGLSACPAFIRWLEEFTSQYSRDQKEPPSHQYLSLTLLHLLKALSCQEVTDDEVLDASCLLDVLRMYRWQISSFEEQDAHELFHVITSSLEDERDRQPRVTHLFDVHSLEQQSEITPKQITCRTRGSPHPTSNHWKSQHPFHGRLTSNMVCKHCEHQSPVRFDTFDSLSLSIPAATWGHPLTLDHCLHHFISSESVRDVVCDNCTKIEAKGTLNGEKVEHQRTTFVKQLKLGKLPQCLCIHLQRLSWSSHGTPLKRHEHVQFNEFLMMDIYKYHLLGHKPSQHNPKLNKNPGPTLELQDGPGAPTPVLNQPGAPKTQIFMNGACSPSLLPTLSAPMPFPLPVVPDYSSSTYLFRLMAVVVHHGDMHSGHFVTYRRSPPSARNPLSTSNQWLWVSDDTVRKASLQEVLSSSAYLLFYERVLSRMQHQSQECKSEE

As for `CC(C)(C)NS(=O)(=O)c1ccc(NC[C@H](O)[C@H](Cc2ccccc2)NC(=O)c2ccc(F)cc2)cc1` [Compound I-41, N-((2S,3S)-4-(4-(N-tert-butylsulfamoyl)phenylamino)-3-hydroxy-1-phenylbutan-2-yl)-4-fluorobenzamide], the IC50 (on USP30 [1] (setting [4]); in experiment [3] (setting [5])) was 1 to 10 µM throughout. Also, at USP30 [2], the activity at 1 µM is 25 to 50%.

Regarding `CC(C)(C)NS(=O)(=O)c1ccc(NC(=O)[C@H](Cc2ccccc2)OCc2ccc(F)cc2)cc1` [Compound I-46, (S)-N-(4-(N-tert-butylsulfamoyl)phenyl)-2-(4-fluorobenzyloxy)-3-phenylpropanamide], at USP30 [1] (setting [4]), the IC50 was more than 1 µM. In addition, at USP30 [2], the activity at 1 µM is more than 75%.

Turning to `O=C(N[C@@H](Cc1cccnc1)C(=O)Nc1ccc(S(=O)(=O)NC2COC2)cc1)c1ccc(F)cc1` [Compound I-66, (S)-4-fluoro-N-(1-(4-(N-oxetan-3-ylsulfamoyl)phenylamino)-1-oxo-3-(pyridin-3-yl)propan-2-yl)benzamide], the IC50 at USP30 [1] (setting [4]) fell in the range of 0.05 to 1 µM. Further, at USP30 [2], the activity at 1 µM was 0 to 25%.

On to `CC(C)(C)NS(=O)(=O)c1ccc(OC[C@H](Cc2ccccc2)NC(=O)c2ccc(F)cc2)cc1` [Compound I-45, (S)-N-(1-(4-(N-tert-butylsulfamoyl)phenoxy)-3-phenylpropan-2-yl)-4-fluorobenzamide], for which, at USP30 [1] (setting [4]), the half-inhibitory concentration (IC50) was more than 1 µM. Also, on USP30 [2], the activity at 1 µM is more than 75%.

For `CC(C)(C)NS(=O)(=O)c1ccc(NC(=O)C2(NC(=O)c3ccc(F)cc3)CC2c2ccccc2)cc1` (racemic) [Compound I-82, racemic-N-(Z)-(1-(4-(N-tert-butylsulfamoyl)phenylcarbamoyl)-2-phenylcyclopropyl)-4-fluorobenzamide], on USP30 [1] (setting [6]), the IC50 is more than 1 µM. Also, on USP30 [2], the activity at 1 µM is more than 75%.

For the compound `CC(C)(C)N[S+]([O-])c1ccc(NC(=O)[C@H](Cc2ccccc2)NC(=O)c2ccc(F)cc2)cc1` (stereo partly drawn) [Compound I-15, N-((2S)-1-(4-(N-tert-Butylsulfinamoyl)phenylamino)-1-oxo-3-phenylpropan-2-yl)-4-fluorobenzamide], the IC50 at USP30 [1] (setting [4]) was 0.05 to 1 µM. The activity at 1 µM on USP30 [2] fell in the range of 25 to 50%.

Regarding `CCNS(=O)(=O)c1ccc(NC(=O)C2Cc3ccccc3CN2C(=O)c2ccc(F)cc2)cc1` (stereo not shown) [Compound I-49, N-(4-(N-ethylsulfamoyl)phenyl)-2-(4-fluorobenzoyl)-1,2,3,4-tetrahydroisoquinoline-3-carboxamide], at USP30 [1] (setting [4]), the IC50 lay in the range of 1 to 10 µM. Besides, on USP30 [2], the activity at 1 µM was more than 75%.

For the compound `C[C@H](NS(=O)(=O)c1ccc(NC(=O)[C@H](Cc2ccccc2)NC(=O)c2ccc(F)cc2)cc1)C1CC1` [Compound I-27, N-((S)-1-(4-(N-((S)-1-cyclopropylethyl)sulfamoyl)phenylamino)-1-oxo-3-phenylpropan-2-yl)-4-fluorobenzamide], the IC50 on USP30 [1] (setting [4]) is less than 0.05 µM. Also, the activity at 1 µM on USP30 [2] is 0 to 25%.

On USP30 [1] (setting [6]), `CC(C)(C)NC(=O)c1ccc(NC(=O)[C@H](Cc2ccccc2)NC(=O)c2ccc(F)cc2)cc1` [Compound I-29, (S)-N-tert-butyl-4-(2-(4-fluorobenzamido)-3-phenylpropanamido)benzamide] gave a half-inhibitory concentration (IC50) of more than 1 µM. The activity at 1 µM at USP30 [2] is more than 75%.

Consider `CC(C)(C)NS(=O)(=O)c1ccc(NC(=O)C2(NC(=O)c3ccccc3)CCc3ccccc3C2)cc1` (stereo not shown) [Compound I-48, 2-benzamido-N-(4-(N-tert-butylsulfamoyl)phenyl)-1,2,3,4-tetrahydronaphthalene-2-carboxamide], for which, on USP30 [1] (setting [4]), the IC50 was more than 1 µM. The activity at 1 µM on USP30 [2] was more than 75%.

In the case of `CC(C)(C)NS(=O)(=O)c1ccc(NC[C@@H](O)[C@H](Cc2ccccc2)NC(=O)c2ccc(F)cc2)cc1` [Compound I-42, N-((2S,3R)-4-(4-(N-tert-butylsulfamoyl)phenylamino)-3-hydroxy-1-phenylbutan-2-yl)-4-fluorobenzamide], the IC50 on USP30 [1] (setting [4]) fell in the range of 1 to 10 µM. Also, the activity at 1 µM at USP30 [2] was more than 75%.

Take `CN(C(=O)[C@H](Cc1ccccc1)NC(=O)c1ccc(F)cc1)c1ccc(S(=O)(=O)NC(C)(C)C)cc1` [Compound I-36, (S)-N-(1-((4-(N-tert-butylsulfamoyl)phenyl)(methyl)amino)-1-oxo-3-phenylpropan-2-yl)-4-fluorobenzamide]: the IC50 on USP30 [1] (setting [4]) is more than 1 µM. Besides, the activity at 1 µM at USP30 [2] is more than 75%.

As to `CC(C)(C)NS(=O)(=O)c1ccc(NC(=O)C2(NC(=O)c3ccc(F)cc3)CC2c2ccccc2)cc1` (racemic) [Compound I-83, racemic-N-((E)-1-(4-(N-tert-butylsulfamoyl)phenylcarbamoyl)-2-phenylcyclopropyl)-4-fluorobenzamide], the 50% inhibitory concentration (IC50) on USP30 [1] (setting [4]) was more than 1 µM. For the same compound, the activity at 1 µM on USP30 [2] is more than 75%.

In the case of `CC(C)(C)NS(=O)(=O)c1ccc(NC[C@H](Cc2ccccc2)NC(=O)c2ccc(F)cc2)cc1` [Compound I-44, (S)-N-(1-(4-(N-tert-butylsulfamoyl)phenylamino)-3-phenylpropan-2-yl)-4-fluorobenzamide], the IC50 on USP30 [1] (setting [4]) is more than 1 µM. The activity at 1 µM on USP30 [2] is more than 75%.

Turning to `CC(C)(C)NS(=O)(=O)c1ccc(NC(=O)C2Cc3cccnc3N2C(=O)c2ccc(F)cc2)cc1` (stereo not shown) [Compound I-57, N-(4-(N-tert-butylsulfamoyl)phenyl)-1-(4-fluorobenzoyl)-2,3-dihydro-1H-pyrrolo[2,3-b]pyridine-2-carboxamide], the 50% inhibitory concentration (IC50) on USP30 [1] (setting [6]) is more than 1 µM. In addition, the activity at 1 µM on USP30 [2] was more than 75%.

Turning to `CC(C)(C)NS(=O)(=O)c1ccc(NC(=O)C2Cc3cnccc3N2C(=O)c2ccc(F)cc2)cc1` (stereo not shown) [Compound I-55, N-(4-(N-tert-butylsulfamoyl)phenyl)-1-(4-fluorobenzoyl)-2,3-dihydro-1H-pyrrolo[3,2-c]pyridine-2-carboxamide], the activity at 1 µM at USP30 [2] was more than 75%. Moreover, the IC50 in experiment [3] (read-out: USP30 IC50 μM (avg), Ubiquitin-Rhodamine substrate 25 nM, 1.5 nM recombinant USP30) was more than 10 µM.

Take `CC(C)(C)N=S(C)(=O)c1ccc(NC(=O)[C@H](Cc2ccccc2)NC(=O)c2ccc(F)cc2)cc1` (stereo partly drawn) [Compound I-17, N-((2S)-1-((4-(N-(tert-butyl)-S-methylsulfonimidoyl)phenyl)amino)-1-oxo-3-phenylpropan-2-yl)-4-fluorobenzamide]: on USP30 [1] (setting [6]), the half-maximal inhibitory concentration (IC50) was more than 1 µM. At USP30 [2], the activity at 1 µM was more than 75%.

As for `CC(C)(C)NS(=O)(=O)c1ccc(NC(=O)C2Cc3cccnc3CN2C(=O)c2ccc(F)cc2)cc1` (stereo not shown) [Compound I-59, N-(4-(N-tert-butylsulfamoyl)phenyl)-7-(4-fluorobenzoyl)-5,6,7,8-tetrahydro-1,7-naphthyridine-6-carboxamide], the activity at 1 µM on USP30 [2] was more than 75%. In addition, the IC50 in experiment [3] (setting [5]) lay within 1 to 10 µM.

With `CC(C)(C)NS(=O)(=O)c1cccc(NC(=O)[C@H](Cc2ccccc2)NC(=O)c2ccc(F)cc2)c1` [Compound I-68, (S)-N-(1-(3-(N-tert-butylsulfamoyl)phenylamino)-1-oxo-3-phenylpropan-2-yl)-4-fluorobenzamide], the IC50 against USP30 [1] (setting [6]) was more than 1 µM. For the same compound, the activity at 1 µM on USP30 [2] is more than 75%.

`CC[C@H](C)NS(=O)(=O)c1ccc(NC(=O)[C@H](Cc2ccccc2)NC(=O)c2ccc(F)cc2)cc1` [Compound I-28, N-((S)-1-((4-(N-((S)-sec-butyl)sulfamoyl)phenyl)amino)-1-oxo-3-phenylpropan-2-yl)-4-fluorobenzamide]: the IC50 on USP30 [1] (setting [4]) is less than 0.05 µM. In addition, the activity at 1 µM at USP30 [2] is 0 to 25%.

For `CCNS(=O)(=O)c1ccc(NC(=O)C2(NC(=O)c3ccccc3)CCc3ccccc3C2)cc1` (stereo not shown) [Compound I-47, 2-benzamido-N-(4-(N-ethylsulfamoyl)phenyl)-1,2,3,4-tetrahydronaphthalene-2-carboxamide], the half-inhibitory concentration (IC50) on USP30 [1] (setting [4]) is more than 1 µM. For the same compound, the activity at 1 µM at USP30 [2] is more than 75%.
